# Reference: PubChem BioAssay (NCI)
#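 All cell lines were grown in 96-well plates and treated with compound for 48 hours. TGI: total growth inhibition.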
# Key:
# Assay in all cases: inhibition of tumour cell growth, NCI panel, 48 h
# OVCAR-8 ovarian = test system: OVCAR-8 ovarian
# HT29 colon = test system: HT29 colon
# MDA-MB-231 breast = test system: MDA-MB-231 breast
# OVCAR-3 ovarian = test system: OVCAR-3 ovarian
# SN12C renal = test system: SN12C renal
# COLO 205 colon = test system: COLO 205 colon
# HOP-92 NSCLC = test system: HOP-92 NSCLC
# NCI-H226 lung = test system: NCI-H226 lung
# SK-MEL-5 melanoma = test system: SK-MEL-5 melanoma
# HOP-62 NSCLC = test system: HOP-62 NSCLC
# SNB-19 CNS = test system: SNB-19 CNS
# HCT-15 colon = test system: HCT-15 colon
# M14 melanoma = test system: M14 melanoma
# NCI/ADR-RES ovarian = test system: NCI/ADR-RES ovarian
# HCT-116 colon = test system: HCT-116 colon
# SK-MEL-28 melanoma = test system: SK-MEL-28 melanoma
# SF-295 CNS = test system: SF-295 CNS
# RPMI-8226 leukemia = test system: RPMI-8226 leukemia
# MOLT-4 leukemia = test system: MOLT-4 leukemia
# SK-OV-3 ovarian = test system: SK-OV-3 ovarian
# PC-3 prostate = test system: PC-3 prostate
# EKVX NSCLC = test system: EKVX NSCLC
# BT-549 breast = test system: BT-549 breast
# ACHN renal = test system: ACHN renal
# OVCAR-5 ovarian = test system: OVCAR-5 ovarian
# MALME-3M melanoma = test system: MALME-3M melanoma
# UACC-257 melanoma = test system: UACC-257 melanoma
# SK-MEL-2 melanoma = test system: SK-MEL-2 melanoma
# K-562 leukemia = test system: K-562 leukemia
# LOX IMVI melanoma = test system: LOX IMVI melanoma
# SR leukemia = test system: SR leukemia
# HL-60(TB) leukemia = test system: HL-60(TB) leukemia
# MDA-N = test system: MDA-N
# A498 renal = test system: A498 renal
# HS 578T breast = test system: HS 578T breast
# SW-620 colon = test system: SW-620 colon
# UACC-62 melanoma = test system: UACC-62 melanoma
# MDA-MB-435 = test system: MDA-MB-435
# 786-0 renal = test system: 786-0 renal
# NCI-H522 lung = test system: NCI-H522 lung
# OVCAR-4 ovarian = test system: OVCAR-4 ovarian
# A549 NSCLC = test system: A549 NSCLC
# U251 CNS = test system: U251 CNS
# CAKI-1 renal = test system: CAKI-1 renal
# UO-31 renal = test system: UO-31 renal
# SF-268 CNS = test system: SF-268 CNS
# MCF7 breast = test system: MCF7 breast
# DU-145 prostate = test system: DU-145 prostate
# T-47D breast = test system: T-47D breast
# NCI-H23 lung = test system: NCI-H23 lung
# KM12 colon = test system: KM12 colon
# TK-10 renal = test system: TK-10 renal
# RXF 393 renal = test system: RXF 393 renal
# IGROV1 ovarian = test system: IGROV1 ovarian
compound,measurement,setting,value
CCC1c2[nH]c3ccccc3c2C[C@H]2C(=O)NC(Cc3c[nH]c4ccccc34)C(=O)N12 (some centres undefined),TGI,OVCAR-8 ovarian,94 µM
same,TGI,HT29 colon,62.2 µM
same,TGI,MDA-MB-231 breast,38.1 µM
same,TGI,OVCAR-3 ovarian,37.8 µM
same,TGI,SN12C renal,52.6 µM
same,TGI,COLO 205 colon,36.2 µM
same,TGI,HOP-92 NSCLC,74 µM
same,TGI,NCI-H226 lung,82.1 µM
same,TGI,SK-MEL-5 melanoma,31.8 µM
same,TGI,HOP-62 NSCLC,50.6 µM
same,TGI,SNB-19 CNS,> 100 µM
same,TGI,HCT-15 colon,78.2 µM
same,TGI,M14 melanoma,49.2 µM
same,TGI,NCI/ADR-RES ovarian,76.6 µM
same,TGI,HCT-116 colon,35.1 µM
same,TGI,SK-MEL-28 melanoma,> 100 µM
same,TGI,SF-295 CNS,35 µM
same,TGI,RPMI-8226 leukemia,55.8 µM
same,TGI,MOLT-4 leukemia,47.9 µM
same,TGI,SK-OV-3 ovarian,> 100 µM
same,TGI,PC-3 prostate,53.1 µM
same,TGI,EKVX NSCLC,88.3 µM
same,TGI,BT-549 breast,52.9 µM
same,TGI,ACHN renal,> 100 µM
same,TGI,OVCAR-5 ovarian,58.5 µM
same,TGI,MALME-3M melanoma,36.3 µM
same,TGI,UACC-257 melanoma,42.2 µM
same,TGI,SK-MEL-2 melanoma,38.6 µM
same,TGI,K-562 leukemia,> 100 µM
same,TGI,LOX IMVI melanoma,49.3 µM
same,TGI,SR leukemia,49.6 µM
same,TGI,HL-60(TB) leukemia,46.4 µM
same,TGI,MDA-N,55.2 µM
same,TGI,A498 renal,> 100 µM
same,TGI,HS 578T breast,49.4 µM
same,TGI,SW-620 colon,> 100 µM
same,TGI,UACC-62 melanoma,32.6 µM
same,TGI,MDA-MB-435,41.1 µM
same,TGI,786-0 renal,55.1 µM
same,TGI,NCI-H522 lung,55 µM
same,TGI,OVCAR-4 ovarian,> 100 µM
same,TGI,A549 NSCLC,> 100 µM
same,TGI,U251 CNS,34.7 µM
same,TGI,CAKI-1 renal,67.3 µM
same,TGI,UO-31 renal,> 100 µM
same,TGI,SF-268 CNS,> 100 µM
same,TGI,MCF7 breast,> 100 µM
same,TGI,DU-145 prostate,> 100 µM
same,TGI,T-47D breast,> 100 µM
same,TGI,NCI-H23 lung,63.2 µM
same,TGI,KM12 colon,43.4 µM
same,TGI,TK-10 renal,80.4 µM
same,TGI,RXF 393 renal,37.1 µM
same,TGI,IGROV1 ovarian,65.2 µM
